Source: patent US20250325560A1, “METHODS FOR IMPROVING MUSCLE MASS, STRENGTH, OR FUNCTION WITH A COMBINATION OF TESTOSTERONE AND GROWTH HORMONE” (University of Rochester, priority 2022, published 2025)

Tests used:
FSHD patients = test: Safety and tolerability monitoring in clinical study; type: in vivo, human; conditions: intramuscular injection into the gluteal muscle, when properly given
Source text: Safety outcome measures included (1) Changes from baseline in laboratory test results, vital signs, and EKG results, (2) Occurrence of serious adverse events, and (3) Occurrence of non-serious adverse events. Exploratory efficacy outcome measures included the following: • 1. Composite Quantitative Muscle Testing (QMT) score • 2. Composite Manual Muscle Testing (MMT) score • 3. FSHD Clinical Outcome Measure (FSHD-COM), total and individual test scores • 4. FSHD-Health Index (FSHD-HI), disease-specific patient-reported outcome measure • 5. Forced Vital Capacity (FVC) • 6. Epworth Sleepiness Scale • 7. Fatigue Severity Scale • 8. Dual Energy X-Ray Absorptiometry (DEXA) Lean Body Mass (total and regional) • 9. PROMIS-57 • 10. Individualized Neuromuscular Quality of Life Questionnaire (INQoL) • 11. Beck Depression Inventory (BDI) • 12. Six minute walk distance
For safety assessments and adverse event assessments, various clinical safety Laboratory tests were carried out. For treatment-specific assessments, the subjects were monitored for the following treatment-related events: • peripheral edema • carpal tunnel syndrome • gynecomastia • insulin resistance • arthralgia • increased erythropoiesis • reduced HDL cholesterol • elevated prostate specific antigen • elevated blood pressure […]

[1] = test system: patients with myotonic dystrophy; conditions: 40 patients with myotonic dystrophy; cited from earlier work
[2] = test system: adult muscular dystrophy population; conditions: heterogeneous adult muscular dystrophy group with normal baseline testosterone; after 3 months of treatment; cited from earlier work

SMILES | Tolerability of intramuscular injections (FSHD patients) | Safety and efficacy of testosterone in isolation [1] | Safety and body composition effects of testosterone in isolation [2]
CCCCCCC(=O)O[C@H]1CC[C@H]2[C@@H]3CCC4=CC(=O)CC[C@]4(C)[C@H]3CC[C@]12C [testosterone enanthate, Testosterone enanthate] | well tolerated |  | 
C[C@]12CC[C@H]3[C@@H](CCC4=CC(=O)CC[C@@]43C)[C@@H]1CC[C@@H]2O [testosterone, 17-β-hydroxyandrost-4-en-3-one] |  | safe, tolerable, and able to improve both creatinine excretion and lean body mass while not statistically improving overall strength | safe and increase lean body mass, reduce body fat, and improve basal metabolic rate
